Tested on in the first data set: not given
Assay: not given
Conditions: not given
`COc1cccc(C(=O)NC2CCc3ccccc32)c1` (racemic) [Compound 52, (rac)-N-(m-Anisoyl)-1-aminoindan] gave a melting point of 140 °C.

`CCCN(CCC)S(=O)(=O)c1ccc(C(=O)NC2CCc3ccccc32)cc1` (racemic) [Compound 69, (rac)-N-(4-(di-n-Propylsulfamoyl)benzoyl)-1-aminoindan] registered a melting point of 124 to 125 °C.

`CC(C)(C)OC(=O)NCCCC(=O)NC1CCc2ccccc21` (racemic) [Compound 6, (rac)-N-(N-Boc-4-aminobutyryl)-1-aminoindan] had a melting point of 118 to 120 °C.

Consider `CC(=O)NC1CCc2ccc([N+](=O)[O-])cc21` (stereo not shown) [Compound 58, N-Acetyl-6-nitro-1-aminoindan], for which the melting point was 179 °C.

On to `O=C(CCCCC(=O)N[C@@H]1CCc2ccccc21)N[C@@H]1CCc2ccccc21` [Compound 74, N,N′-Bis-((R)-1-indanyl)adipamide], for which the melting point was 244 to 247 °C.

Regarding `CCCC(=O)NC1CCc2ccccc21` (racemic) [Compound 11, (rac)-N-Butyryl-1-aminoindan], the melting point was in the range of 84 to 85 °C.

As to `Cc1ccc(C(=O)NC2CCc3ccccc32)cc1` (racemic) [Compound 54, (rac)-N-(p-Toluoyl)-1-aminoindan], the melting point stood at 140 °C.

Regarding `O=C(NC1CCc2ccccc21)c1ccccc1` (racemic) [Compound 46, (rac)-N-Benzoyl-1-aminoindan], the melting point was in the range of 140 to 142 °C.

`COc1ccc2c(c1)C(NC(C)=O)CC2` (racemic) [Compound 26, (rac) 6-methoxy-N-acetyl-1-aminoindan]: the melting point is 131 to 132 °C.

As to `O=C(CCC(=O)N[C@@H]1CCc2ccccc21)N[C@@H]1CCc2ccccc21` [Compound 75, N,N′-Bis-((R)-1-indanyl)succinamide], the melting point lay in the range of 266 to 269 °C.

As to `O=C(CCCCC(=O)NC1CCc2ccccc21)NC1CCc2ccccc21` (stereo not shown) [Compound 73, N,N′-Bis-(1-indanyl)adipamide], the melting point came to 227 °C.

Compound `CC(=O)NC1CCc2ccc(C#N)cc21` (racemic) [Compound 61, (rac)-6-Cyano-N-acetyl-1-aminoindan] displayed a melting point of 175 to 176 °C.

The compound `O=C(N[C@@H]1CCc2ccccc21)C(F)(F)F` [Compound 68, (R)-N-Trifluoroacetyl-1-aminoindan] registered a melting point of 152 to 153 °C.

Regarding `O=C(NC1CCc2ccccc21)c1ccc(F)cc1` (racemic) [Compound 53, (rac)-N-(4′-Fluorobenzoyl)-1-aminoindan], the melting point lay in the range of 109 to 110 °C.

For `CCCC(CCC)C(=O)NC1CCc2ccccc21` (stereo not shown) [Compound 47, N-(2-n-Propylpentanoyl)-1-aminoindan], the melting point was 133 to 134 °C.

Take `O=CNC1CCc2ccccc21` (racemic) [Compound 8, (rac)-N-Formyl-1-aminoindan]: the melting point came to 105 °C.

As for `CCOC(=O)c1ccc2c(c1)C(NC(C)=O)CC2` (racemic) [Compound 63, (rac)-6-Ethoxycarbonyl-N-acetyl-1-aminoindan], the melting point was 146 to 147 °C.

Regarding `COc1ccc2c(c1OC)CC[C@H]2NC(C)=O` [Compound 21, (R)-4,5-Dimethoxy-N-acetyl-1-aminoindan], the melting point stood at 175 °C.

Consider `CC(=O)NC1CCc2cccc(C)c21` (racemic) [Compound 20, (rac)-7-Methyl-N-acetyl-1-aminoindan], for which the melting point lay in the range of 166 to 167 °C.

The test system of a further data set is mice. Description: Maximal electroshock (MES) model, mice. The settings on record: mice.
Regarding `N[C@H]1CCc2ccc(F)cc21` [K, (S)-6-fluoro-1-aminoindan], the “activity in the MES model in mice, in words” value was “showed activity”.

Consider `C#CCNC1CCc2ccc(F)cc21` (stereo not shown) [L, 6-fluoro-N-propargyl-1-aminoindan], for which the “activity in the MES model in mice, in words” value is “showed activity”.

Still in this data set, the particulars now being: mice, intraperitoneal (i.p.) administration.
In the case of `NC(=O)CNC1CCCc2ccccc21` (racemic) [Compound 4, (rac)-N-(2-Acetamido)-1-aminotetralin], the “MICE MES ED50” value was less than 100 mg/kg.

The values above are taken from patent publication US6528685B2 (Teva Pharmaceutical Industries, Ltd., priority 1994, dated 2003).
